From patent US12640239B2, “Functional biomarkers for statin therapy in age-related macular degeneration (AMD)” (APELIOTUS TECHNOLOGIES, INC., priority 2017, dated 2026)

Columns and labels:
[1] = test system: AMD patients; assay: Clinical assessment of AMD diagnosis and response to statin therapy; assay type: in vivo, human
From the text: AMD status has been determined in the art using a number of recognized grading systems, such as the Beckman AMD Classification System, the Age-Related Eye Disease Study (AREDS) Severity Scale, the AREDS Simplified Severity Scale, the International Classification and Grading System for AMD, and the Wisconsin Age-Related Maculopathy Grading System. When a determination of AMD status is required for a subject, the determination of AMD status is made using the Beckman AMD Classification System (Ferris et al. Ophthalmology 2013; 120:844-851).
Table 2 provides detailed information regarding patients 1 to 7, including the baseline diagnosis (diagnosis made when starting statin therapy), ending diagnosis (the diagnosis made on the date of the last referenced evaluation), the results of evaluations performed on each patient, and whether the patient responded to statin therapy. The dark adaptation data in this Example is the rod intercept time (or RI time) reported in minutes. In this Example, the dark adaptation data was collected using the AdaptDx® Dark Adaptometer (MacuLogix, Middletown, PA) running its standard Extended Test protocol. […] Data is automatically analyzed by the AdaptDx Dark Adaptometer to provide an RI time based on recovery to a criterion sensitivity level of 5×10^−3 scotopic cd/m^2. […] The visual acuity data was collected using a standard Snellen or ETDRS eye chart with the results presented using the standard 20/20 vision scale. Drusen resolution was determined by evaluation of fundus and OCT imaging by qualified clinicians experienced in AMD evaluation. Fundus and OCT imaging data was collected using the Heidelberg Engineering Spectralis® SD-OCT (Heidelberg, Germany) or the Karl Zeiss Meditec Cirrus® HD-OCT (Jena, Germany), in both cases running standard protocols with automated data analysis performed by the instruments.
The baseline diagnosis and ending diagnosis are the result of clinical assessment by qualified clinicians experienced in evaluation of AMD patients. The clinical assessment was carried out utilizing standard ophthalmic testing, such as, but not limited to, slit-lamp biomicroscopy (including looking for evidence of drusen and pigmentary changes), fundus and OCT imaging (including looking for evidence of drusen and pigmentary changes and calculation of retinal volume and retinal thickness), and testing with a Snellen or ETDRS eye chart (including looking for visual acuity changes that might indicate a change in disease status). Dark adaptation results were not used in the clinical assessment of the baseline or ending diagnosis.
Patients 1, 3-5 and 7 were determined to be non-responders to statin treatment as the initial diagnosis was unchanged after treatment and clinical evaluation. […] For patient 2, RI time improved by 1.67 minutes OD and 2.60 minutes OS agreeing with the clinical assessment of a response to statin therapy (i.e., improving clinically). Patient 6 could not be clearly classified as a responder or non-responder to statin treatment. […] For patient 6, RI time decreased by 2.2 minutes OD, agreeing with the initial clinical signs of a response to statin therapy.

[2] = test system: patient having intermediate AMD; assay: Patient self-report of perceived changes in visual function during statin treatment; assay type: in vivo, human
From the text: The patient was asked to report any perceived changes in visual function during the course of the treatment.
The patient was asked to report any perceived changes in visual function during the course of the treatment. […] The self-reported improvement was confirmed at months 15 and 22 of treatment. […] The resolution of the drusen was confirmed by fundus photography and optical coherence tomography (OCT) imaging.

[3] = test system: AMD patients; conditions: high-dose atorvastatin; Vavvas et al., 2016; cited from earlier work

## CC(C)c1c(C(=O)Nc2ccccc2)c(-c2ccccc2)c(-c2ccc(F)cc2)n1CC[C@@H](O)C[C@@H](O)CC(=O)O [atorvastatin]
[1]; Patient #1, atorvastatin 20 to 80 mg/day from July 2013, OD, month 0 (July 2013), baseline
  Diagnosis: Intermediate AMD
[1]; Patient #1, atorvastatin 20 to 80 mg/day from July 2013, OS, month 0 (July 2013), baseline
  Diagnosis: Intermediate AMD
[1]; Patient #1, atorvastatin 20 to 80 mg/day, OD, month 60 (July 2018), ending diagnosis
  Diagnosis: Intermediate AMD
[1]; Patient #1, atorvastatin 20 to 80 mg/day, OS, month 60 (July 2018), ending diagnosis
  Diagnosis: Intermediate AMD
[1]; Patient #1, atorvastatin 20 to 80 mg/day, month 60 (July 2018)
  Responder: No
[1]; Patient #2, atorvastatin 80 mg/day from January 2013, OD, month 0 (January 2013), baseline
  Diagnosis: Intermediate AMD
[1]; Patient #2, atorvastatin 80 mg/day from January 2013, OS, month 0 (January 2013), baseline
  Diagnosis: Intermediate AMD
[1]; Patient #2, atorvastatin 80 mg/day, OD, month 66 (July 2018), ending diagnosis
  Diagnosis: Early AMD
[1]; Patient #2, atorvastatin 80 mg/day, OS, month 66 (July 2018), ending diagnosis
  Diagnosis: Early AMD
[1]; Patient #2, atorvastatin 80 mg/day, month 66 (July 2018)
  Responder: Yes
[1]; Patient #3, atorvastatin 80 mg/day from October 2016, OD, month 0 (October 2016), baseline
  Diagnosis: Late AMD (CNV)
[1]; Patient #3, atorvastatin 80 mg/day, OD, month 20 (June 2018), ending diagnosis
  Diagnosis: Late AMD (CNV)
[1]; Patient #3, atorvastatin 80 mg/day, month 20 (June 2018)
  Responder: No
[1]; Patient #4, atorvastatin 80 mg/day from May 2018, OD, month 0 (May 2018), baseline
  Diagnosis: Late AMD (GA)
[1]; Patient #4, atorvastatin 80 mg/day from May 2018, OS, month 0 (May 2018), baseline
  Diagnosis: Intermediate AMD
[1]; Patient #4, atorvastatin 80 mg/day, OD, month 4 (September 2018), ending diagnosis
  Diagnosis: Late AMD (GA)
[1]; Patient #4, atorvastatin 80 mg/day, OS, month 4 (September 2018), ending diagnosis
  Diagnosis: Intermediate AMD
[1]; Patient #4, atorvastatin 80 mg/day, month 4 (September 2018)
  Responder: No
[1]; Patient #5, atorvastatin 80 mg/day (suspended January 2015-February 2016), then 20 mg/day, pravastatin 20 mg/day from April 2018, OD, month 52 (June 2018), ending diagnosis
  Diagnosis: Intermediate AMD
[1]; Patient #5, atorvastatin 80 mg/day (suspended January 2015-February 2016), then 20 mg/day, pravastatin 20 mg/day from April 2018, OS, month 52 (June 2018), ending diagnosis
  Diagnosis: Intermediate AMD
[1]; Patient #5, atorvastatin 80 mg/day (suspended January 2015-February 2016), then 20 mg/day, pravastatin 20 mg/day from April 2018, month 52 (June 2018)
  Responder: No
[1]; Patient #5, atorvastatin 80 mg/day from January 2014, OD, month 0 (January 2014), baseline
  Diagnosis: Intermediate AMD
[1]; Patient #5, atorvastatin 80 mg/day from January 2014, OS, month 0 (January 2014), baseline
  Diagnosis: Intermediate AMD
[1]; Patient #6, atorvastatin 80 mg/day from November 2017, OD, month 0 (November 2017), baseline
  Diagnosis: Intermediate AMD
[1]; Patient #6, atorvastatin 80 mg/day from November 2017, OS, month 0 (November 2017), baseline
  Diagnosis: Intermediate AMD
[1]; Patient #6, atorvastatin 80 mg/day, OD, month 9 (August 2018), ending diagnosis
  Diagnosis: Intermediate AMD
[1]; Patient #6, atorvastatin 80 mg/day, OS, month 9 (August 2018), ending diagnosis
  Diagnosis: Intermediate AMD
[1]; Patient #6, atorvastatin 80 mg/day, month 9 (August 2018)
  Responder: Maybe
[1]; Patient #7, atorvastatin 10 to 20 mg/day from April 2016, OD, month 0 (April 2016), baseline
  Diagnosis: Intermediate AMD
[1]; Patient #7, atorvastatin 10 to 20 mg/day from April 2016, OS, month 0 (April 2016), baseline
  Diagnosis: Intermediate AMD
[1]; Patient #7, atorvastatin 10 to 20 mg/day, OD, month 27 (July 2018), ending diagnosis
  Diagnosis: Intermediate AMD
[1]; Patient #7, atorvastatin 10 to 20 mg/day, OS, month 27 (July 2018), ending diagnosis
  Diagnosis: Intermediate AMD
[1]; Patient #7, atorvastatin 10 to 20 mg/day, month 27 (July 2018)
  Responder: No
[2]; Example 1: adult female, oral atorvastatin increasing to 80 mg per day over six months, no objective testing
  Self-reported change in contrast sensitivity: improvement in contrast sensitivity
[2]; Example 2: adult person, oral atorvastatin 10 to 80 mg per day for 23 months, month 7, confirmed at months 15 and 22, no objective testing
  Self-reported change in dark adaptation: improvement in dark adaptation
[3]
  Patients treated with disappearance of drusen deposits and improvement in vision: 43%
